Data taken from patent US11926611B1, “2-(2-ethoxyethoxy)-6-phenyl-4,4′-bipyridine-3-carbonitrile as an antimicrobial compound” (KING FAISAL UNIVERSITY, priority 2023, dated 2024).

Assays:
[1] = tested on: Staphylococcus aureus; test: Antimicrobial screening by agar dilution, Staphylococcus aureus; format: cell-based; settings: after 10, 20, 40 and 60 minutes at all dilutions 1:100, 1:200, 1:400, 1:800
Experimental: (§1) The antibacterial properties of the synthesized compound 2-(2-ethoxyethoxy)-6-phenyl-4,4′-bipyridine-3-carbonitrile were studied by the method of agar dilution. Test solutions of each compound was prepared in concentration of 1% using dimethylformamide as a solvent then they are diluted in physiological solution to obtain the final experimental dilutions 1:100, 1:200, 1:400, 1:800. The effect of these substances are compared with furacillin in a controllable study. The testing microbes used were gram positive bacteria Staphylococcus aureus, gram negative bacteria Pseudomonas aeruginosa and Escherichia coli and Candida albicans fungus. The experiments used for this survey were meat-pentonlu agar (EPA) for cultivation of bacteria and Saburo environment for the fungus. Each experiment used 1 mL of test solution on each plate […]. Two drops of emulsified with microbes feel were added. All experimental samples were taken from the agar after 10, 20, 40, 60 minutes in the environment on the basis of Patrk planted. The bacteria were cultivated at a temperature of 37° C. for 1 day and the mushroom was kept in a thermostat for […] at a temperature of 28° C. Then results were checked.

[2] = tested on: Escherichia coli; test: Antimicrobial screening by agar dilution, Escherichia coli; format: cell-based; settings: after 10, 20, 40 and 60 minutes at all dilutions 1:100, 1:200, 1:400, 1:800
Experimental: as §1

[3] = tested on: Pseudomonas aeruginosa; test: Antimicrobial screening by agar dilution, Pseudomonas aeruginosa; format: cell-based; settings: after 10, 20, 40 and 60 minutes at all dilutions 1:100, 1:200, 1:400, 1:800
Experimental: as §1

[4] = tested on: Candida albicans; test: Antimicrobial screening by agar dilution, Candida albicans; format: cell-based; settings: after 10, 20, 40 and 60 minutes at all dilutions 1:100, 1:200, 1:400, 1:800
Experimental: as §1

CCOCCOc1nc(-c2ccccc2)cc(-c2ccncc2)c1C#N [2-(2-ethoxyethoxy)-6-phenyl-4,4′-bipyridine-3-carbonitrile]
inhibition activity (in words) [1]: highest inhibition activity | inhibition activity (in words) [2]: highest inhibition activity | inhibition activity (in words) [3]: highest inhibition activity | inhibition activity (in words) [4]: highest inhibition activity | melting point: 241 to 243 °C
